Experiment [1] addresses T1, human PNPO 1-31del variant (holo-enzyme) (Homo sapiens, UniProt Q9NVS9).
T1 construct: a main form corresponding to the entire protein; made in house; host or cells: E. coli BL21(DE3)
T1 sequence (Q9NVS9 32-261): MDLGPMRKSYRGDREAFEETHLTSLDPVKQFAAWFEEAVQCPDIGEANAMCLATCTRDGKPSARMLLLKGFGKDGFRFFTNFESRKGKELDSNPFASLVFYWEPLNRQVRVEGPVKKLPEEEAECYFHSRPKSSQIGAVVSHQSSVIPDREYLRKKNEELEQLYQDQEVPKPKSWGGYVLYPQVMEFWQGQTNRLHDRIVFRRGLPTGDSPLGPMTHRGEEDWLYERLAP
As to the kind of experiment: PLP binding by FMN fluorescence changes, holo 1-31del. The settings on record: read-out: PLP binding KD^FLUO. An excerpt:
In order to further confirm the location of the PNPO allosteric site, we made several attempts to obtain the crystal structure of the protein‐PLP complex. With the E. coli homologue, any attempt to obtain such a complex with the wild type protein yielded structures in which PLP was bound at the active site, and we could obtain a complex with PLP bound at the allosteric site only when we used a multiple variant form of the enzyme in which the capability to bind ligands at the active site was impaired (Barile et al., [2021]). On the basis of this previous experience, we carried out co‐crystallization attempts with either the wild type or the R225H variant of the human protein and PLP. […] We obtained crystals with both protein forms (Table S1); however, PLP was detected only in the active site of the wild type protein, thus a clear indication about the location of the allosteric site was missing. […] The most interesting features of the 1‐31del form are a lower KD for PLP binding (threefold lower with respect to wild type PNPO), which indicates a higher affinity for the allosteric site, and the related more marked allosteric inhibition, which is evident from the comparison of the reaction kinetics measured in TRIS and HEPES buffers (Figure 7). […]

Experiment [2] addresses human PNPO R161C variant (holo-enzyme). On the set-up: method as in Barile et al. ([2021]). The settings on record: FMN fluorescence changes, ref Barile et al. ([2021]), read-out: PLP binding KD^FLUO; cited from earlier work.

A word on the Kd: it is the free concentration of one partner at which half of the binding sites on the other are occupied at equilibrium, for simple one-to-one binding. Regarding `Cc1ncc(COP(=O)(O)O)c(C=O)c1O` [PLP, pyridoxal 5′‐phosphate], the Kd was 310 ± 30 nM in experiment [1] and 530 ± 80 nM in experiment [2].

The values above are taken from article PMC10804683, “Identification of the pyridoxal 5′‐phosphate allosteric site in human pyridox(am)ine 5′‐phosphate oxidase” (Protein Science : A Publication of the Protein Society, 2024).
